Reference: patent US20240166654A1, “RUXOLITINIB CRYSTAL AND PHARMACEUTICAL COMPOSITION THEREOF” (ZHEJIANG AUSUN PHARMACEUTICAL CO., LTD., priority 2022, published 2024)

Assays:
[1] = Stability of solid forms in stabilization chamber (appearance or XRPD versus initial solid form); format: physicochemical; settings: for Physical stability (solid form): 3.0 g sample, appearance or XRPD compared with initial solid form
Protocol: 3.0 g of ruxolitinib free base in different solid forms was stored in a stabilization chamber, and placed in the condition that the temperature and humidity were controlled to at 25° C., 60% RH, and 40° C., 75% RH for […], respectively. The samples were analyzed by appearance or XRPD to check its solid form and compared with its initial solid form.

[2] = Storage of crystal in polyethylene self-sealing bag, XRPD pattern; format: physicochemical; settings: 30-35° C. for 3 months, transparent polyethylene self-sealing bag, 10.0 g
Protocol: In addition, 10.0 g of crystal of compound of formula I of Example 1 was placed in a transparent polyethylene self-sealing bag and allowed to stand at 30-35° C. for 3 months.

Structure (SMILES)	Physical stability (hygroscopicity observation) ([1]; 25° C./60%-RH, 2 hours)	Physical stability (solid form) ([1]; 25° C./60%-RH, 2 hours)	Physical stability (hygroscopicity observation) ([1]; 40° C./75%-RH, 8 hours)	Physical stability (solid form) ([1]; 40° C./75%-RH, 8 hours)	Stability of crystalline form by XRPD [2]	Stability compared with ruxolitinib foam and amorphous form of Example 5 ([1]; 25° C., 60% RH for 2 hours and 40° C., 75% RH for 8 hours, summary of Table 4)
N#CC[C@H](C1CCCC1)n1cc(-c2ncnc3[nH]ccc23)cn1 [Foam]	hygroscopic	Change of solid form,	hygroscopic	Change of solid form,		
N#CC[C@H](C1CCCC1)n1cc(-c2ncnc3[nH]ccc23)cn1 [Compound of Formula I of Example 1, ((3R)-3-cyclopentyl-3-[4-(7H-pyrrolo[2,3-d]pyrimidin-4-yl)pyrazol-1-yl]propionitrile)·2H2O]		No change of solid form		No change of solid form	remains stable	better stability
